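Step 1: Grow cells in 96-well plates. Step 2: Expose to compound for 48 hours at 5 concentrations. Step 3: Interpolate endpoints linearly; if unreached, use highest concentration. GI50 marks 50% less growth. TGI: concentration producing complete growth inhibition.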
Columns and labels:
Test in all cases: inhibition of tumour cell growth, NCI panel, 48 h
[1] = test system: NCI-H23 lung
[2] = test system: SK-MEL-5 melanoma
[3] = test system: MDA-MB-435
[4] = test system: SNB-19 CNS
[5] = test system: NCI-H522 lung
[6] = test system: SF-295 CNS
[7] = test system: UACC-257 melanoma
[8] = test system: NCI-H460 lung
[9] = test system: HT29 colon
[10] = test system: HL-60(TB) leukemia
[11] = test system: LOX IMVI melanoma
[12] = test system: A549 NSCLC
[13] = test system: SR leukemia
[14] = test system: OVCAR-5 ovarian
[15] = test system: COLO 205 colon
[16] = test system: ACHN renal
[17] = test system: HOP-92 NSCLC
[18] = test system: CCRF-CEM leukemia
[19] = test system: RXF 393 renal
[20] = test system: KM12 colon
[21] = test system: TK-10 renal
[22] = test system: A498 renal
[23] = test system: RPMI-8226 leukemia
[24] = test system: HCT-15 colon
[25] = test system: T-47D breast
[26] = test system: SK-MEL-28 melanoma
[27] = test system: MALME-3M melanoma
[28] = test system: SK-MEL-2 melanoma
[29] = test system: EKVX NSCLC
[30] = test system: M14 melanoma
[31] = test system: UO-31 renal
[32] = test system: PC-3 prostate
[33] = test system: SF-268 CNS
[34] = test system: HCT-116 colon
[35] = test system: K-562 leukemia
[36] = test system: BT-549 breast
[37] = test system: OVCAR-3 ovarian
[38] = test system: OVCAR-8 ovarian
[39] = test system: 786-0 renal
[40] = test system: UACC-62 melanoma
[41] = test system: SK-OV-3 ovarian
[42] = test system: MDA-MB-231 breast
[43] = test system: SN12C renal
[44] = test system: MOLT-4 leukemia
[45] = test system: HCC-2998 colon
[46] = test system: SF-539 CNS
[47] = test system: SW-620 colon
[48] = test system: U251 CNS
[49] = test system: OVCAR-4 ovarian
[50] = test system: IGROV1 ovarian
[51] = test system: NCI/ADR-RES ovarian
[52] = test system: CAKI-1 renal
[53] = test system: NCI-H226 lung
[54] = test system: MCF7 breast
[55] = test system: HS 578T breast
[56] = test system: HOP-62 NSCLC
[57] = test system: DU-145 prostate

Question: Which results are given for `COc1cc2c(cc1OC)-c1c(c3ccc([N+](=O)[O-])cc3c(=O)n1CCCN)C2=O`?
Answer: GI50 [1]: 548 nM; TGI [1]: 1550 nM; GI50 [2]: 2500 nM; TGI [2]: 8470 nM; GI50 [3]: 7230 nM; TGI [3]: 15400 nM; GI50 [4]: 944 nM; TGI [4]: 5900 nM; GI50 [5]: 61.5 nM; TGI [5]: 4220 nM; GI50 [6]: 56.6 nM; TGI [6]: 10500 nM; GI50 [7]: 6790 nM; TGI [7]: 14600 nM; GI50 [8]: 403 nM; TGI [8]: 8970 nM; GI50 [9]: 531 nM; TGI [9]: 1120 nM; GI50 [10]: 1280 nM; TGI [10]: 3380 nM; GI50 [11]: 325 nM; TGI [11]: 1170 nM; GI50 [12]: 395 nM; TGI [12]: 1680 nM; GI50 [13]: 38.6 nM; TGI [13]: 346 nM; GI50 [14]: 3460 nM; TGI [14]: 9540 nM; GI50 [15]: 1830 nM; TGI [15]: 8850 nM; GI50 [16]: 242 nM; TGI [16]: 4040 nM; GI50 [17]: 7290 nM; TGI [17]: 16500 nM; GI50 [18]: 495 nM; TGI [18]: 2400 nM; GI50 [19]: 1210 nM; TGI [19]: 4120 nM; GI50 [20]: 2100 nM; TGI [20]: 4920 nM; GI50 [21]: 7240 nM; TGI [21]: 17100 nM; GI50 [22]: 6270 nM; TGI [22]: 13200 nM; GI50 [23]: 812 nM; TGI [23]: 3520 nM; GI50 [24]: 1300 nM; TGI [24]: 3660 nM; GI50 [25]: 271 nM; TGI [25]: 8470 nM; GI50 [26]: 7250 nM; TGI [26]: 15300 nM; GI50 [27]: 5310 nM; TGI [27]: 16400 nM; GI50 [28]: 5950 nM; TGI [28]: 14100 nM; GI50 [29]: 7750 nM; TGI [29]: 18300 nM; GI50 [30]: 9.71 nM; TGI [30]: 1570 nM; GI50 [31]: 351 nM; TGI [31]: 3590 nM; GI50 [32]: 6100 nM; TGI [32]: 12300 nM; GI50 [33]: 1400 nM; TGI [33]: 12300 nM; GI50 [34]: 570 nM; TGI [34]: 1460 nM; GI50 [35]: 955 nM; TGI [35]: 2650 nM; GI50 [36]: 1790 nM; TGI [36]: 4490 nM; GI50 [37]: 8420 nM; TGI [37]: 18400 nM; GI50 [38]: 1010 nM; TGI [38]: 4490 nM; GI50 [39]: 716 nM; TGI [39]: 1840 nM; GI50 [40]: 1950 nM; TGI [40]: 10800 nM; GI50 [41]: 8810 nM; TGI [41]: 20200 nM; GI50 [42]: 521 nM; TGI [42]: 1540 nM; GI50 [43]: 695 nM; TGI [43]: 6820 nM; GI50 [44]: 165 nM; TGI [44]: 1600 nM; GI50 [45]: 81.8 nM; TGI [45]: 759 nM; GI50 [46]: 124 nM; TGI [46]: 1290 nM; GI50 [47]: 491 nM; TGI [47]: 5920 nM; GI50 [48]: 267 nM; TGI [48]: 1050 nM; GI50 [49]: 1070 nM; TGI [49]: 2720 nM; GI50 [50]: 306 nM; TGI [50]: 8290 nM; GI50 [51]: 342 nM; TGI [51]: 2870 nM; GI50 [52]: 658 nM; TGI [52]: 9160 nM; GI50 [53]: 3610 nM; TGI [53]: 12100 nM; GI50 [54]: 54.5 nM; TGI [54]: 7090 nM; GI50 [55]: 9120 nM; TGI [55]: 20200 nM; GI50 [56]: 1280 nM; TGI [56]: 8240 nM; GI50 [57]: 684 nM; TGI [57]: 1370 nM
